Measured values published in US20170311602A1, “METHODS AND COMPOSITIONS FOR THE CONTROL OF FUNGAL PATHOGENS IN CROP PLANTS” (Monsanto Technology LLC, priority 2014, published 2017).

Columns and labels:
Assay type in all cases: in vivo
[1] = test system: corn stalk rot susceptible hybrids; experiment: Greenhouse seedling emergence trial for seed safety of treated corn seed; details: number of plants emerged at day 7, five plants per pot
Description: Seeds treated with chemistry were evaluated for seed safety in greenhouse emergence trials. Seed treatment active ingredients were combined in a slurry mix with colorant, polymer, and water at the recommended rates and allowed to mix thoroughly. Using a Gustafson BMC lab treater the seed batch was deposited in the BMC coater and treatment slurry was injected and allowed to tumble for 35-40 seconds before being ejected into a bulk collection bin and transferred to a paper storage bag. Standard corn stalk rot susceptible hybrids were planted using six pot replicates of five plants per pot. The treatments were randomized in RCBD, blocked by GH watering trays. Planting media consisted of 3.5 inch pots with the following media: US10 soil and 50/50 mix of US10/REDIEARTH. Replicates were placed perpendicular to the greenhouse temperature gradient.
Initial daily emergence counts at spike emergence of first treatment, continued until emergence was complete in untreated control (7-10 days after planting). The final stand was calculated as the number of plants emerged at day 7. The stand AUC was calculated as the area under the emergence curve.

[2] = test system: Colletotrichum graminicola; experiment: Field trial, Anthracnose stalk rot disease severity after stalk wounding and inoculation; details: 60 g ai/100 kg seed; Acceleron 2013 base; N=3 locations; control (surface wounding) 2.9
Description: Field trials were conducted to evaluate seed treatments for efficacy and yield. Field plots contained a single row or up to 4 rows by 20-40 feet. Smallest plot size was a single row by 20 feet. Four replications were typically used. The hybrids selected for the study were typically moderately susceptible to Anthracnose stalk rot, which indicates a susceptibility rating of at least 5-6 on a 9 point scale (1=highly resistant, 9=highly susceptible). […] The typical growth stage for field inoculation was […]). For disease ratings, stalks were surface wounded using implements with needles that either provided shallow scratches on the surface of the stalk ( 1 cm depth) or shallow piercing wounds ( 1 cm depth). Concurrent with surface wounding, a spore suspension of Colletotrichum graminicola (C. graminicola) conidia is sprayed onto wounded area or injected into shallow wounds. The total volume of spore suspension applied was in the range of 1-5 mL. […] Disease development was monitored in control treatments and disease evaluations were usually targeted when disease index rating reached approximately 5 on a 1-9 scale in control treatments. […] 10 stalks were assessed per plot. […] The stalks were split and the number of internodes with disease symptoms was counted starting at the internode above top node with brace roots (disease incidence rating). […]

[3] = test system: Colletotrichum graminicola; experiment: Field yield trial, seed treatments in inoculated soil plots; details: Acceleron 2013 base, N=10 locations, control 164.4
Description: (§1) Field trials were conducted to evaluate seed treatments for efficacy and yield. Field plots contained a single row or up to 4 rows by 20-40 feet. Smallest plot size was a single row by 20 feet. Four replications were typically used. The hybrids selected for the study were typically moderately susceptible to Anthracnose stalk rot, which indicates a susceptibility rating of at least 5-6 on a 9 point scale (1=highly resistant, 9=highly susceptible).
(§2) The typical growth stage for field inoculation was VT/R1 (tasseling/silking). For disease ratings, stalks were surface wounded using implements with needles that either provided shallow scratches on the surface of the stalk (˜1 cm depth) or shallow piercing wounds (˜1 cm depth). Concurrent with surface wounding, a spore suspension of Colletotrichum graminicola (C. graminicola) conidia is sprayed onto wounded area or injected into shallow wounds. The total volume of spore suspension applied was in the range of 1-5 mL. Yield trials were soil inoculated or non-inoculated (natural pressure). For soil inoculation the fungus was grown on sorghum seed and the infested sorghum seed was placed in furrow at planting of the trials.
(§3) Yield was determined in the following manner. The center two rows of the plot were harvested or both rows if it was a two row plot. The weight and percent moisture were recorded for each plot grain sample. The recorded plot weight and % moisture were converted to standardized weight using standard moisture of 15.5%. Each plot was normalized to kg/ha by interpolating plot yield area to hectares. Yield in bushels/acre (bu/A) was determined by interpolating plot yield area to acre and conversion to bu/A using a standard corn bushel weight of 56 lb.
All seeds, including control, were treated with Acceleron 2013 commercial seed treatment (disease control+insect control) as a base. N=10 locations.

corn = experiment: Field yield trials, seed treatments in non-inoculated soil plots (natural pressure); details: Acceleron 2013 base; for Yield Trial 1: N=22 locations, control 174.9; for Yield Trial 2: N=24 locations, control 174.4
Description: as §1, §2, §3
All seeds, including control, were treated with Acceleron 2013 commercial seed treatment (disease+insect control) as a base. N=22 locations.
All seeds, including control, were treated with Acceleron 2013 commercial seed treatment (disease+insect control) as a base. N=24 locations.

Fusarium verticillioides = experiment: Tray seedling test, efficacy of seed treatment against Fusarium verticillioides; details: FS100, 30 g ai/100 kg seeds; untreated (% damage) 26%
Description: (§4) The seed tested (Amadeo harvest 2008, TKW 331,3) was seeded in trays 20×20×6 cm, with 9 holes for water release in field soil/quartz sand mix (1:1). Two repetitions with 25 kernels each were treated using standard seed treatment techniques. Each tray contained a single isolate of either Fusarium verticillioides G679, Fusarium verticillioides S039/07, Fusarium verticillioides S149/08, Colletotrichum graminicola BF0911 or Colletotrichum graminicola CG-1. The fungi were grown on sterile wheat grains. Thereafter, wheat grains were roughly ground after incubation and dried. For inoculation, either 5 or 15 ml of inoculum were scattered between the seeds at sowing, followed by incubation for 7 days at 10° C., followed by 7 days 24° C./15° C. (day/night period). Plants were evaluated for a) initial emergence (number of plants), b) final emergence (number of plants), c) disease level. Seedlings were classified in 3 categories: low, moderate or sevre necrosis. The disease score was calculated as follows: […]

[4] = test system: Colletotrichum graminicola; experiment: Tray seedling test, efficacy of seed treatment against Colletotrichum graminicola; details: FS100, 30 g ai/100 kg seeds; untreated (% damage) 22%
Description: as §4

Compound | Final Stand ([1]; 25 g ai/100 kg seed) | Final Stand ([1]; 50 g ai/100 kg seed) | Final Stand ([1]; 100 g ai/100 kg seed) | Final Stand ([1]; 200 g ai/100 kg seed) | Final Stand ([1]; 300 g ai/100 kg seed) | Final Stand ([1]; 400 g ai/100 kg seed) | Disease Severity (nodes ≧50% necrosis) [2] | Yield ([3]; 30 g/100 Kg seed) | Yield ([3]; 60 g/100 Kg seed) | Yield ([3]; 90 g/100 Kg seed) | Yield Trial 1 (corn; 30 g/100 Kg seed) | Yield Trial 2 (corn; 30 g/100 Kg seed) | Yield Trial 1 (corn; 60 g/100 Kg seed) | Yield Trial 2 (corn; 60 g/100 Kg seed) | Yield Trial 2 (corn; 90 g/100 Kg seed) | Efficacy against Fusarium verticillioides (av. of 3 isolates) (Fusarium verticillioides) | Efficacy against Colletotrichum graminicola (av. 2 isolates) [4]
CO/N=C(/C1=NOCCO1)c1ccccc1Oc1ncnc(Oc2ccccc2Cl)c1F [Fluoxastrobin, fluoxastrobin] | 4.79 | 4.67 | 4.63 | 4.83 | 4.58 | 4.99 | 1.5 nodes ≧50% necrosis | 169.4 bu/A | 172 bu/A | 171.8 bu/A | 175.9 Bu/acre | 175.9 Bu/acre | 179.1 Bu/acre | 177.6 Bu/acre | 176.3 Bu/acre | 3 % Abbott | 88 % Abbott
OC(Cc1ccccc1Cl)(Cn1nc[nH]c1=S)C1(Cl)CC1 (centres unmarked) [Prothioconazole, prothioconazole] | 4.88 | 4.75 | 4.58 | 4.92 |  |  | 1.6 nodes ≧50% necrosis | 172.4 bu/A | 173.6 bu/A | 174 bu/A | 177.1 Bu/acre | 176.6 Bu/acre | 178.6 Bu/acre | 178.3 Bu/acre | 175.2 Bu/acre | 47 % Abbott | 51 % Abbott
